# Test results reported in PubChem BioAssay (NCI).
#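 48-hour exposure; five concentrations; linearly interpolated endpoints. Abbreviation: GI50, concentration required for 50% inhibition of growth. TGI marks complete inhibition of growth.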
# Legend:
# Experiment in all cases: NCI anticancer screen, dose series, 48 h
# [1] = system: NCI/ADR-RES ovarian
# [2] = system: SN12C renal
# [3] = system: OVCAR-4 ovarian
# [4] = system: HS 578T breast
# [5] = system: K-562 leukemia
# [6] = system: NCI-H23 lung
# [7] = system: SR leukemia
# [8] = system: SF-268 CNS
# [9] = system: MDA-MB-435
# [10] = system: MOLT-4 leukemia
# [11] = system: 786-0 renal
# [12] = system: CAKI-1 renal
# [13] = system: IGROV1 ovarian
# [14] = system: SNB-19 CNS
# [15] = system: SNB-75 CNS
# [16] = system: LOX IMVI melanoma
# [17] = system: OVCAR-5 ovarian
# [18] = system: SK-OV-3 ovarian
# [19] = system: DU-145 prostate
# [20] = system: HCC-2998 colon
# [21] = system: EKVX NSCLC
# [22] = system: SK-MEL-5 melanoma
# [23] = system: HOP-62 NSCLC
# [24] = system: UO-31 renal
# [25] = system: SK-MEL-2 melanoma
# [26] = system: RPMI-8226 leukemia
# [27] = system: NCI-H226 lung
# [28] = system: MDA-MB-231 breast
# [29] = system: A498 renal
# [30] = system: MALME-3M melanoma
# [31] = system: NCI-H522 lung
# [32] = system: PC-3 prostate
# [33] = system: SF-539 CNS
# [34] = system: U251 CNS
# [35] = system: CCRF-CEM leukemia
# [36] = system: MDA-MB-468 breast
# [37] = system: HOP-92 NSCLC
# [38] = system: NCI-H460 lung
# [39] = system: UACC-62 melanoma
# [40] = system: SW-620 colon
# [41] = system: KM12 colon
# [42] = system: HCT-15 colon
# [43] = system: T-47D breast
# [44] = system: TK-10 renal
# [45] = system: OVCAR-8 ovarian
# [46] = system: SK-MEL-28 melanoma
# [47] = system: SF-295 CNS
# [48] = system: COLO 205 colon
# [49] = system: M14 melanoma
# [50] = system: UACC-257 melanoma
# [51] = system: HCT-116 colon
# [52] = system: RXF 393 renal
# [53] = system: BT-549 breast
# [54] = system: HL-60(TB) leukemia
# [55] = system: OVCAR-3 ovarian
# [56] = system: A549 NSCLC
# [57] = system: HT29 colon
# [58] = system: ACHN renal
smiles,measurement,setting,value
COc1cc2c3c(n(CCCN4CCOCC4)c(=O)c2cc1OC)-c1nc2c(cc1C3=O)OCO2,GI50,[1],0.327 µM
same,TGI,[1],3.68 µM
same,GI50,[2],2.72 µM
same,TGI,[2],> 100 µM
same,GI50,[3],> 100 µM
same,TGI,[3],> 100 µM
same,GI50,[4],25.3 µM
same,TGI,[4],> 100 µM
same,GI50,[5],0.177 µM
same,TGI,[5],> 82.9 µM
same,GI50,[6],0.185 µM
same,TGI,[6],1.52 µM
same,GI50,[7],0.0606 µM
same,TGI,[7],> 49 µM
same,GI50,[8],0.892 µM
same,TGI,[8],> 100 µM
same,GI50,[9],0.828 µM
same,TGI,[9],> 100 µM
same,GI50,[10],0.0581 µM
same,TGI,[10],16 µM
same,GI50,[11],0.593 µM
same,TGI,[11],29.4 µM
same,GI50,[12],0.159 µM
same,TGI,[12],> 100 µM
same,GI50,[13],> 100 µM
same,TGI,[13],> 100 µM
same,GI50,[14],0.271 µM
same,TGI,[14],> 100 µM
same,GI50,[15],0.254 µM
same,TGI,[15],> 64.5 µM
same,GI50,[16],0.17 µM
same,TGI,[16],1.47 µM
same,GI50,[17],4.91 µM
same,TGI,[17],> 100 µM
same,GI50,[18],0.217 µM
same,TGI,[18],4 µM
same,GI50,[19],0.418 µM
same,TGI,[19],> 100 µM
same,GI50,[20],1.86 µM
same,TGI,[20],> 100 µM
same,GI50,[21],1.97 µM
same,TGI,[21],> 100 µM
same,GI50,[22],0.18 µM
same,TGI,[22],0.61 µM
same,GI50,[23],0.051 µM
same,TGI,[23],0.748 µM
same,GI50,[24],0.499 µM
same,TGI,[24],> 100 µM
same,GI50,[25],> 100 µM
same,TGI,[25],> 100 µM
same,GI50,[26],0.341 µM
same,TGI,[26],> 56.4 µM
same,GI50,[27],0.495 µM
same,TGI,[27],> 33 µM
same,GI50,[28],2.38 µM
same,TGI,[28],5.62 µM
same,GI50,[29],> 69.2 µM
same,TGI,[29],> 100 µM
same,GI50,[30],1.75 µM
same,TGI,[30],> 100 µM
same,GI50,[31],0.277 µM
same,TGI,[31],15.7 µM
same,GI50,[32],2.09 µM
same,TGI,[32],> 100 µM
same,GI50,[33],0.226 µM
same,TGI,[33],1.33 µM
same,GI50,[34],0.109 µM
same,TGI,[34],3.78 µM
same,GI50,[35],0.0351 µM
same,TGI,[35],1.72 µM
same,GI50,[36],0.13 µM
same,TGI,[36],0.51 µM
same,GI50,[37],2.87 µM
same,TGI,[37],> 100 µM
same,GI50,[38],0.0772 µM
same,TGI,[38],2.35 µM
same,GI50,[39],0.117 µM
same,TGI,[39],> 100 µM
same,GI50,[40],0.477 µM
same,TGI,[40],> 100 µM
same,GI50,[41],> 53.9 µM
same,TGI,[41],> 100 µM
same,GI50,[42],1.24 µM
same,TGI,[42],> 100 µM
same,GI50,[43],0.185 µM
same,TGI,[43],> 100 µM
same,GI50,[44],> 100 µM
same,TGI,[44],> 100 µM
same,GI50,[45],2.92 µM
same,TGI,[45],> 100 µM
same,GI50,[46],> 52 µM
same,TGI,[46],> 100 µM
same,GI50,[47],0.0556 µM
same,TGI,[47],1.7 µM
same,GI50,[48],1.36 µM
same,TGI,[48],> 100 µM
same,GI50,[49],0.25 µM
same,TGI,[49],> 100 µM
same,TGI,[50],> 100 µM
same,GI50,[51],0.416 µM
same,TGI,[51],> 100 µM
same,GI50,[52],1.2 µM
same,GI50,[53],0.619 µM
same,TGI,[53],8.43 µM
same,GI50,[54],1.25 µM
same,TGI,[54],> 100 µM
same,GI50,[55],4.61 µM
same,TGI,[55],> 100 µM
same,GI50,[56],3.43 µM
same,TGI,[56],> 100 µM
same,GI50,[57],0.442 µM
same,TGI,[57],11.6 µM
same,GI50,[58],0.15 µM
same,TGI,[58],> 100 µM
